Measurements published in patent US20090297645A1, “Fibroblast Activator and Method of Activating Fibroblast, Collagen Synthesis Promoter and Method of Promoting Collagen Synthesis, and Skin Antiaging Agent and Method of Preventing Aging of Skin” (priority 2005, published 2009).

Tests used:
Normal human fibroblasts [1] = assay: Test of fibroblast activation function (MTT formazan); assay type: cell-based; conditions: positive control, DMEM containing 5 percent FBS, 48 hours, control = 100, n = 5
Procedure: 3-(4,5-Dimethyl-2-thiazolyl)-2,5-diphenyl-2H-tetrazolium […] (MTT) cleaves NADPH or NADH produced in energy metabolic processes in mitochondria within cells to produce formazan. Thus, the quantity of formazan produced was adopted as an indicator of cell activation function.
Normal human fibroblasts were seeded onto a 96-well microplate at a cell density of 3.0×10^4 cells/well. After culturing for 24 hours in Dulbecco's modified eagle medium (DMEM) containing 1 percent fetal bovine serum (FBS), the medium was replaced with DMEM containing 1 percent FBS containing a freeze-dried product of grape sap in the concentration shown in Table 1. A positive control (PC) in the form of DMEM containing 5 percent FBS was employed. […]
The cells were washed, the formazan produced in the cells was dissolved in 2-propanol, and a microplate reader was employed to measure the absorbance at 550 nm and 650 nm. The difference between the two was calculated to evaluate the quantity of formazan generated within the cells. Cell activation function was denoted by an activation index (%) with the absorbance (ABS.) of cultivated cells to which no sample was added (control) being denoted as 100. […] The p value was determined to be significant when p<0.05.

Normal human fibroblasts [2] = assay: Test of collagen synthesis promoting function of fibroblasts (type I collagen ELISA, BCA protein); assay type: cell-based; conditions: positive control, concentration not given, 48 hours
Procedure: The collagen synthesis of fibroblasts was evaluated by quantifying the amount of secreted type I collagen in culture supernatant by ELISA.
Normal human fibroblasts were seeded onto a 96-well microplate at a cell density of 3.0×10^4 cells/well. After culturing for 24 hours in DMEM containing 0.5 percent FBS, the medium was replaced with DMEM containing 0.5 percent FBS containing a freeze-dried product of grape sap in the concentration shown in Table 2. A PC in the form of magnesium ascorbyl phosphate (VCPMg) was employed. After 48 hours, the culture supernatant was collected and the amount of type I collagen was quantified by ELISA.
Culture supernatant and calibration curve-use type I collagen were placed in a 96-well plate and coated overnight at 4° C. […] Twenty minutes later, a microplate reader was employed to measure the absorbance at 405 nm. The quantity of collagen in the culture supernatant was calculated from a calibration curve measured with the same plate.
At the same time, the quantity of cell protein was quantified using BCA protein assay reagent (PIERCE). The quantity of collagen in the culture supernatant was divided by the quantity of protein to calculate the quantity of collagen per unit of protein, which was adopted as the quantity of collagen synthesized by the cells. […] The p value was determined to be significant when p<0.05. […]

O=C1O[C@H]([C@@H](O)CO)C([O-])=C1OP(=O)([O-])[O-].O=C1O[C@H]([C@@H](O)CO)C([O-])=C1OP(=O)([O-])[O-].[Mg+2].[Mg+2].[Mg+2] [PC, magnesium ascorbyl phosphate]
Activation index (%) Mean ± SD (Normal human fibroblasts [1]): 116.0 ± 2.9% | Collagen amount (ng/μg protein) Mean ± SD (Normal human fibroblasts [2]): 32.9 ± 4.8 ng/μg protein | Protein amount (μg) Mean ± SD (Normal human fibroblasts [2]): 11.2 ± 0.2 µg
